Source: patent US12398132B2, “Derivatives of 4-(imidazo[1,2-a]pyridin-3-yl)-n-(pyridinyl)pyrimidin-2-amine as therapeutic agents” (AUCENTRA THERAPEUTICS PTY LTD, priority 2019, dated 2025)
Substitutions are numbered along the chain they refer to. Read-outs that look alike come from different tables or passages of the source.

Assays:
[1] = molecular target: CDK7HMAT1 (Homo sapiens, UniProt P50613);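 also: kinase activity measured with an ADP-Glo luminescent kinase assay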
Procedure: (§1) Inhibition of FLT3(WT), FLT3(ITD) and FLT3(D835Y) and CDKs were determined using ADP Glo Kinase assays (Promega Corporation, Madison, WI, USA). […] The kinase reactions are run for an optimised time period (FLT3-WT: 120 min, FLT3-ITD: 80 min, FLT3-D835Y: 100 min) at room temperature and then the reaction was stopped by adding 5 μL of ADP Glo reagent. […] Positive and negative controls were performed in 0.5% DMSO in the presence and absence of each FLT3 kinase, respectively. […] Half-maximal inhibition (IC50) values were calculated using a 4-parameter logistic non-linear regression model with Graphpad prism (Version 6.0). Apparent inhibition constants (Ki) values were calculated from Km (ATP) and IC50 values for the respective kinases.

[2] = molecular target: T1, FLT3(D835Y) (Homo sapiens, UniProt P36888, D835Y); assay: ADP Glo kinase assay, FLT3(D835Y); format: biochemical; conditions: apparent Ki calculated from Km (ATP) and IC50, read-out: FLT3 inhibition Ki
T1 sequence (P36888 27-993 D835Y): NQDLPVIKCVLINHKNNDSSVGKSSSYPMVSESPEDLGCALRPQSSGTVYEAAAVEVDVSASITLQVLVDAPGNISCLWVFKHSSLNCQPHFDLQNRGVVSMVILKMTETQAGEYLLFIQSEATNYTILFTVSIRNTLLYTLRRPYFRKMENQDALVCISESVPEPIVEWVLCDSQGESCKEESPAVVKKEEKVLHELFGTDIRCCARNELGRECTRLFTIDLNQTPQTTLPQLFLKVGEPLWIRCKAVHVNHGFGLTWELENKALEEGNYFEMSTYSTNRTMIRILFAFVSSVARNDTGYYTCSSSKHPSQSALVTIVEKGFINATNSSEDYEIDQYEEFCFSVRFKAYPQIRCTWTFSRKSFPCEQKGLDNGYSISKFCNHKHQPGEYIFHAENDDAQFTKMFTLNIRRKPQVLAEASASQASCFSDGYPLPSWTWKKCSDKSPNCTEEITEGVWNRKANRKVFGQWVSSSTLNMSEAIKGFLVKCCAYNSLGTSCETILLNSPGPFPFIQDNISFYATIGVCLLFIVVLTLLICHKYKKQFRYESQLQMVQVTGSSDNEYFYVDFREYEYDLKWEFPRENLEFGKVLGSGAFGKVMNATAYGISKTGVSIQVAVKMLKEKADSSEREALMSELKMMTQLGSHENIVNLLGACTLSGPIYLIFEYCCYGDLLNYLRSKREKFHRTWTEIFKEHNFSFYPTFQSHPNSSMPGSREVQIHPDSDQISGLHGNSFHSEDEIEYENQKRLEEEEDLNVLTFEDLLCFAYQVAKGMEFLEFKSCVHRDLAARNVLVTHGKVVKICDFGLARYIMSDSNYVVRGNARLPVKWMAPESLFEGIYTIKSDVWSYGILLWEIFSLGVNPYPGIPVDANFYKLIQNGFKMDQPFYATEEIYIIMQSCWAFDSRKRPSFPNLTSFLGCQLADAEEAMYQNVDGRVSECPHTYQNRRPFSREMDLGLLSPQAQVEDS
Procedure: as §1

[3] = molecular target: CDK2E1 (Homo sapiens, UniProt P24941); conditions: 1 µM
[4] = tested on: U937; assay: Proliferation assay (resazurin/MTT), U937; format: cell-based; conditions: Homo sapiens, U-937, read-out: 72 h Growth inhibition GI50, U937 cells
[5] = tested on: MV-4-11; assay: Proliferation assay (resazurin/MTT), MV-4-11; format: cell-based; conditions: Homo sapiens, MV4-11, read-out: 72 h Growth inhibition GI50, MV-4-11 cells
[6] = molecular target: T2, FLT3(ITD) (Homo sapiens, UniProt P36888); assay: ADP Glo kinase assay, FLT3(ITD); format: biochemical; conditions: apparent Ki calculated from Km (ATP) and IC50, read-out: FLT3 inhibition Ki
T2 sequence (P36888 1-993): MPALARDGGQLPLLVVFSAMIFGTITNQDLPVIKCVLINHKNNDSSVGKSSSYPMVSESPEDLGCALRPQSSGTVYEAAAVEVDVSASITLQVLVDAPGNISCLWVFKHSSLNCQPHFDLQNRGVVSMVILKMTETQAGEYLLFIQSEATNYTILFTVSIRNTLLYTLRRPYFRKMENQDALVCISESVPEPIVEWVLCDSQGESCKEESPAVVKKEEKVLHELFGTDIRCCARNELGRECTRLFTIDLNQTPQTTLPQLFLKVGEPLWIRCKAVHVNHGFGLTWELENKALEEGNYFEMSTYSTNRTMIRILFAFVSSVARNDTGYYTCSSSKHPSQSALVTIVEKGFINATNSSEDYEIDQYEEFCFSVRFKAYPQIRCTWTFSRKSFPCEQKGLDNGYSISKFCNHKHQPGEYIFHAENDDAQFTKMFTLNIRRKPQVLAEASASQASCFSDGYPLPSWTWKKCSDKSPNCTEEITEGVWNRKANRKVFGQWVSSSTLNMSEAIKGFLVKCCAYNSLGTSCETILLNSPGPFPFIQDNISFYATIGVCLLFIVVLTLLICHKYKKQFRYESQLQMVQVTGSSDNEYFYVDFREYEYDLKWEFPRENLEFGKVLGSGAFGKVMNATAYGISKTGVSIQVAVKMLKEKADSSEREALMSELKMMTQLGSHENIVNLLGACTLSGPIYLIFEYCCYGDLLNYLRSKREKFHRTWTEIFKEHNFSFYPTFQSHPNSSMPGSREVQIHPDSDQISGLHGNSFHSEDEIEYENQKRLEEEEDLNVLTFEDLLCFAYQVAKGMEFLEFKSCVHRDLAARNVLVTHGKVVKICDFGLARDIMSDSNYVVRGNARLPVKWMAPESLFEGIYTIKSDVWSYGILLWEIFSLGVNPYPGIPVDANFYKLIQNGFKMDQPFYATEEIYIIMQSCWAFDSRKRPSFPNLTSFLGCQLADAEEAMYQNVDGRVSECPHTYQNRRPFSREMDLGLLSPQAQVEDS
Procedure: as §1

[7] = molecular target: CDK6/D3 (Homo sapiens, UniProt Q00534); assay: ADP Glo kinase assay, CDK6/D3; format: biochemical; conditions: CDK6D3; for remaining activity at 10 µM: compound at 10 μM, read-out: residual enzymatic activity (%) at 10 μM; for remaining activity at 1 µM: compound at 1 μM (values marked *), read-out: residual enzymatic activity (%) at 1 μM*
Sequence of CDK6/D3 (Q00534 whole entry, species assumed): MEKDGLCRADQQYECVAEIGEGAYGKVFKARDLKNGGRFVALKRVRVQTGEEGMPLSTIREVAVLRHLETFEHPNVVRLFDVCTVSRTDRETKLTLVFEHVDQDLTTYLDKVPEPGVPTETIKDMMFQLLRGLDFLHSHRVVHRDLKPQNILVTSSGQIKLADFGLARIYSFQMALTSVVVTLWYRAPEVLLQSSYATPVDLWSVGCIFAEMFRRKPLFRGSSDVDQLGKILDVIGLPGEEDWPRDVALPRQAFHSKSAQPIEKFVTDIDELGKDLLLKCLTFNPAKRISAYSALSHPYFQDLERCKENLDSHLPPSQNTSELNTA
Sequence of CDK6/D3 (P30281 whole entry partner, species assumed): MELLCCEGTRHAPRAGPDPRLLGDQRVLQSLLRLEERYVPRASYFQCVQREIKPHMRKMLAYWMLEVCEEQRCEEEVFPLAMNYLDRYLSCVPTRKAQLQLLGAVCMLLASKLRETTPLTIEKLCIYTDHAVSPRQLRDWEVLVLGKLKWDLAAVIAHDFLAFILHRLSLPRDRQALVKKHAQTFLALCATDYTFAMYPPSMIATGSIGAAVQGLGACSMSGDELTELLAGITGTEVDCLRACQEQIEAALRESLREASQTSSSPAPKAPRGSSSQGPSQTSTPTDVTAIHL

[8] = molecular target: CDK9/CyclinT1 (Homo sapiens, UniProt P50750); assay: ADP Glo kinase assay, CDK9/CyclinT1; format: biochemical; conditions: CDK9T1; for remaining activity at 10 µM: compound at 10 μM, read-out: residual enzymatic activity (%) at 10 μM
Sequence of CDK9/CyclinT1 (P50750 whole entry, species assumed): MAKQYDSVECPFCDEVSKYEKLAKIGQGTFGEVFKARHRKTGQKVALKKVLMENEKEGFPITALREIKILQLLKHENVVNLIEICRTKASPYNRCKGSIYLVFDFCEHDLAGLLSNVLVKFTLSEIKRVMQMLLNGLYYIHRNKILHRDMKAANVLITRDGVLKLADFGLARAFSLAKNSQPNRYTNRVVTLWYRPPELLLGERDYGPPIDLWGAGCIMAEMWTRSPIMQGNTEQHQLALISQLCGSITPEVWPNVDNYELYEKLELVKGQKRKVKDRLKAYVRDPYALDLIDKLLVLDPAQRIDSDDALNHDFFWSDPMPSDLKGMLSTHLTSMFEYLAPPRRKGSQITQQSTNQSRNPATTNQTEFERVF
Sequence of CDK9/CyclinT1 (O60563 whole entry partner, species assumed): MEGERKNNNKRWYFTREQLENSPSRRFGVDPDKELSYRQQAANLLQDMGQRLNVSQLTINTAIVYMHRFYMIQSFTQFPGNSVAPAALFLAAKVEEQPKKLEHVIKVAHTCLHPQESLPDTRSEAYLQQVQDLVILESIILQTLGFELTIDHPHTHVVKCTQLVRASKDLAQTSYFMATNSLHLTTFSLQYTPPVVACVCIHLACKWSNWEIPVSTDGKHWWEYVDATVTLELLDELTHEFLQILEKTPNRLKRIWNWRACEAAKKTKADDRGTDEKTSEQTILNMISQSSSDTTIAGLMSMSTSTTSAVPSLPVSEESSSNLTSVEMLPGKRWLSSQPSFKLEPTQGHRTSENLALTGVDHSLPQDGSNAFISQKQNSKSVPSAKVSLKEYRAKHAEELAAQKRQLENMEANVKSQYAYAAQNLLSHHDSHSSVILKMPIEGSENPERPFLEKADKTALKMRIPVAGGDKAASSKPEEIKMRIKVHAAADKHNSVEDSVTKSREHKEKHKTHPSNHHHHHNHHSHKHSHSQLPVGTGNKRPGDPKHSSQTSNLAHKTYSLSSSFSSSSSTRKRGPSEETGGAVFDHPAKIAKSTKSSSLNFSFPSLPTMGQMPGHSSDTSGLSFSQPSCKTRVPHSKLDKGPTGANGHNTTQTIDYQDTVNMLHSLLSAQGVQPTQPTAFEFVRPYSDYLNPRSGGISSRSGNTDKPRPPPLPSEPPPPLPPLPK
Procedure: (§2) Inhibition of FLT3(WT), FLT3(ITD) and FLT3(D835Y) and CDKs were determined using ADP Glo Kinase assays (Promega Corporation, Madison, WI, USA). […] Similarly, kinase reaction for CDK4/D1 and CDK6/D3 was performed with reaction buffer (40 nM Tris base pH 7.5, 20 mM MgCl2, 0.4 mM DTT), 0.1 mg/ml BSA and RB-CTF substrate (retinoblastoma protein1 C-terminal fraction). For CDK9/CyclinT1, the kinase reaction was performed with the standard assay buffer and Kinase Dilution Buffer and RBER-IRStide substrate. Half-maximal inhibition (IC50) values were calculated using a 4-parameter logistic non-linear regression model with Graphpad prism (Version 6.0). Apparent inhibition constants (Ki) values were calculated from Km (ATP) and IC50 values for the respective kinases.

[9] = molecular target: T3, FLT3(WT) (Homo sapiens, UniProt P36888); assay: ADP Glo kinase assay, FLT3(WT); format: biochemical; conditions: for Ki: apparent Ki calculated from Km (ATP) and IC50, read-out: FLT3 inhibition Ki; for remaining activity at 1 µM: compound at 1 μM, read-out: residual enzymatic activity (%) at 1 μM
T3 sequence (P36888 27-993): T1 sequence (P36888 27-993 D835Y) with Y809D
Procedure: as §1

[10] = molecular target: CDK1B (Homo sapiens, UniProt P06493)
Sequence of CDK1B (P06493 whole entry): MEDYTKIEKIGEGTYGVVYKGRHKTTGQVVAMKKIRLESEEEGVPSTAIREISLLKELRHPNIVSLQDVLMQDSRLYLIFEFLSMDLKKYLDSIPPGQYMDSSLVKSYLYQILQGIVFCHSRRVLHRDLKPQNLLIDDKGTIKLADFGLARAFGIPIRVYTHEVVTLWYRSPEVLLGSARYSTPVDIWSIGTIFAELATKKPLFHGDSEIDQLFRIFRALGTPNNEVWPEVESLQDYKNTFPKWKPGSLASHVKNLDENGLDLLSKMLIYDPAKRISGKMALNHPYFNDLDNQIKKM
Sequence of CDK1B (P14635 whole entry partner): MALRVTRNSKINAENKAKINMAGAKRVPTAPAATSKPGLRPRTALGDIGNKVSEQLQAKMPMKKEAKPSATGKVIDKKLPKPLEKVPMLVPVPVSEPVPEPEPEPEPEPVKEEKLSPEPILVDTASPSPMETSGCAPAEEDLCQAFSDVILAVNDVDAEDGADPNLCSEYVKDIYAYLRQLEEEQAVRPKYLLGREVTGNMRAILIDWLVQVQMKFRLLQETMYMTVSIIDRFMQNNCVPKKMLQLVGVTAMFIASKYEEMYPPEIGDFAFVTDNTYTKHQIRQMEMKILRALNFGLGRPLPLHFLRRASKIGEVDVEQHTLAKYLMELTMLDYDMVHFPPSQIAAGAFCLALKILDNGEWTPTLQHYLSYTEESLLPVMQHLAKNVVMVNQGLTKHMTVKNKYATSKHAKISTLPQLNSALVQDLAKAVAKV

[11] = molecular target: CDK4/D1 (Homo sapiens, UniProt P11802); assay: ADP Glo kinase assay, CDK4/D1; format: biochemical; conditions: CDK4D1; for remaining activity at 10 µM: compound at 10 μM, read-out: residual enzymatic activity (%) at 10 μM; for remaining activity at 1 µM: compound at 1 μM (values marked *), read-out: residual enzymatic activity (%) at 1 μM*
Sequence of CDK4/D1 (P11802 whole entry, species assumed): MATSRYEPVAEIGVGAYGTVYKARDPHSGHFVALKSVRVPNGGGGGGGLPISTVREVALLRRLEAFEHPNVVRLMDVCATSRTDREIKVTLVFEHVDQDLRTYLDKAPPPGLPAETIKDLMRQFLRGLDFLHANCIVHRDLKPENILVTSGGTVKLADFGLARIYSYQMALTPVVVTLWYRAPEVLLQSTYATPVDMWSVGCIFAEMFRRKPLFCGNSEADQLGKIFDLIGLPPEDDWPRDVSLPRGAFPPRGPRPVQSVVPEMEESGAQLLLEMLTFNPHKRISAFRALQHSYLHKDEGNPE
Sequence of CDK4/D1 (P24385 whole entry partner, species assumed): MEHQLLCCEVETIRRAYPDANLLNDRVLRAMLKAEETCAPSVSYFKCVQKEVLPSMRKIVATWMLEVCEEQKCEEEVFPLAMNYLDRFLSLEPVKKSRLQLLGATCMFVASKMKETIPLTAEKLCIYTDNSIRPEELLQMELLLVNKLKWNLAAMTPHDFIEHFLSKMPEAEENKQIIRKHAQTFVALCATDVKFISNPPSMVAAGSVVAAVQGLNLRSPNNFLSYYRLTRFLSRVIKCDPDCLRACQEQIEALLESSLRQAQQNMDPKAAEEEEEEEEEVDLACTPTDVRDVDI
Procedure: as §2

Sequence of CDK7HMAT1 (P50613 whole entry): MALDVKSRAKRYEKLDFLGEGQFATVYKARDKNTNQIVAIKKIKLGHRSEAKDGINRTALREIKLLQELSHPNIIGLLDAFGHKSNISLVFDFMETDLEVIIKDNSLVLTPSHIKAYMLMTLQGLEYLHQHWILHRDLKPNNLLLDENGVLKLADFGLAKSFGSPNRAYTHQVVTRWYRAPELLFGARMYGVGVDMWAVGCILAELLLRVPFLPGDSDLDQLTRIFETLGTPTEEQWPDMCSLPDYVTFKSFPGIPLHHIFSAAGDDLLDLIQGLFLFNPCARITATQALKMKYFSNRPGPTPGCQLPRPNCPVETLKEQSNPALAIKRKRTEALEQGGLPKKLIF
Sequence of CDK7HMAT1 (P51946 whole entry partner): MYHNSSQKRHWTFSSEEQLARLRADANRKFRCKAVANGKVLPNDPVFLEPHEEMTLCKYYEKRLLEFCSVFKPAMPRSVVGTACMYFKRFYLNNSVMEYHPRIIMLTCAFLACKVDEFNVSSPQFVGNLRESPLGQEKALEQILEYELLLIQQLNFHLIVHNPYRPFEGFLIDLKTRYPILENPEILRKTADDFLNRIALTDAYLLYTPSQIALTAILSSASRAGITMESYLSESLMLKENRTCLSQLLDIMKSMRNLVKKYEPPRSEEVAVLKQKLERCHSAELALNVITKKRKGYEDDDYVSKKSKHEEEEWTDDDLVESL
Sequence of CDK7HMAT1 (P51948 whole entry partner): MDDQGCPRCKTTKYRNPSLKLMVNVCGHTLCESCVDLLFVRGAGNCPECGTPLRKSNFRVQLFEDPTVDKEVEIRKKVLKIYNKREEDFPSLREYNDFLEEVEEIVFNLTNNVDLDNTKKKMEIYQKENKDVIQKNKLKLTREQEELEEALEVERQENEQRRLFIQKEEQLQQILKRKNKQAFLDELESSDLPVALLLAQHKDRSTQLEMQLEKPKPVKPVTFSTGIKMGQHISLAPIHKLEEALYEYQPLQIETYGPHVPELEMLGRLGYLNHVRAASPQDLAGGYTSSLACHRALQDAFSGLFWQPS

Row | Compound | activity ([1]; 10 µM) [%] | Ki [2] [nM] | activity [3] [%] | GI50 [4] [nM] | GI50 [5] [nM] | Ki [6] [nM] | remaining activity at 10 µM [7] [%] | remaining activity at 10 µM [8] [%] | Ki [9] [nM] | activity ([10]; 10 µM) [%] | remaining activity at 10 µM [11] [%] | remaining activity at 1 µM [9] [%] | activity ([1]; 1 µM) [%] | remaining activity at 1 µM [7] [%] | remaining activity at 1 µM ([8]; compound at 1 μM (values marked *), read-out: residual enzymatic activity (%) at 1 μM*) [%] | activity ([10]; 1 µM) [%] | remaining activity at 1 µM [11] [%] | Ki ([8]; apparent Ki calculated from Km (ATP) and IC50, read-out: CDK inhibition Ki) [nM]
1 | CC(=O)N1CCN(c2ccc(Nc3nccc(-c4cnc5ccc(Cl)cn45)n3)nc2)CC1 [Cmpd 9, 1-(4-(6-((4-(6-Chloroimidazo[1,2-a]pyridin-3-yl)pyrimidin-2-yl)amino)pyridin-3-yl)piperazin-1-yl)ethan-1-one] | 76 | 9 | 64 | 797 | 15 | 30 | 32 | 28 | 117 | 94 | 46 | – | – | – | – | – | – | –
2 | CC(=O)N1CCN(c2ccc(Nc3nccc(-c4cnc5ccc(Br)cn45)n3)nc2)CC1 [Cmpd 10, 1-(4-(6-((4-(6-Bromoimidazo[1,2-a]pyridin-3-yl)pyrimidin-2-yl)amino)pyridin-3-yl)piperazin-1-yl)ethan-1-one] | 55 | 10 | 58 | 3130 | 2 | 6 | 36 | 23 | 83 | 41 | 34 | – | – | – | – | – | – | –
3 | CC(=O)N1CCN(c2ccc(Nc3nccc(-c4cnc5ccc(-c6cncnc6)cn45)n3)nc2)CC1 [Cmpd 16, 1-(4-(6-((4-(6-(Pyrimidin-5-yl)imidazo[1,2-a]pyridin-3-yl)pyrimidin-2-yl)amino)pyridin-3-yl)piperazin-1-yl)ethan-1-one] | 60 | 48 | 90 | 2920 | 18 | 426 | 99 | – | – | 81 | 78 | 23 | – | – | – | – | – | –
4 | CS(=O)(=O)N1CCN(c2ccc(Nc3nccc(-c4cnc5ccc(Br)cn45)n3)nc2)CC1 [Cmpd 50, 4-(6-Bromoimidazo[1,2-a]pyridin-3-yl)-N-(5-(4-(methylsulfonyl)piperazin-1-yl)pyridin-2-yl)pyrimidin-2-amine] | – | 15 | 74 | 127 | 7 | 180 | – | – | 35 | – | – | – | 57 | 63 | 48 | 62 | 40 | –
5 | CC(=O)N1CCN(c2ccc(Nc3nccc(-c4cnc5ccc(-c6cnc(N7CCN(C)CC7)nc6)cn45)n3)nc2)CC1 [Cmpd 20, 1-(4-(6-((4-(6-(2-(4-Methylpiperazin-1-yl)pyrimidin-5-yl)imidazo[1,2-a]pyridin-3-yl)pyrimidin-2-yl)amino)pyridin-3-yl)piperazin-1-yl)ethan-1-one] | 66 | 58 | 83 | 4040 | 60 | 127 | 77 | 38 | – | 100 | 70 | 36 | – | – | – | – | – | –
6 | CN1CCN(c2ccc(Nc3nccc(-c4cnc5ccc(Br)cn45)n3)nc2)CC1 [Cmpd 45, 4-(6-Bromoimidazo[1,2-a]pyridin-3-yl)-N-(5-(4-methylpiperazin-1-yl)pyridin-2-yl)pyrimidin-2-amine] | – | 13 | 49 | 1960 | 23 | 15 | – | – | 25 | – | – | – | – | 46 | – | 71 | 34 | 111
7 | Brc1ccc(Nc2nccc(-c3cnc4ccccn34)n2)nc1 [Cmpd 47, N-(5-Bromopyridin-2-yl)-4-(imidazo[1,2-a]pyridin-3-yl)pyrimidin-2-amine] | – | > 500 | 103 | 645 | 545 | 489 | – | 62 | > 500 | – | – | – | – | 85 | – | 79 | 72 | –
